Results published in patent publication US20100009956A1, “NOVEL SUBSTITUTED PYRIMIDINES AS CYSTEINE PROTEASE INHIBITORS” (Glaxo Group Limited , a corporation, priority 2006, published 2010).
Counter-ions that a name gives are not always drawn. Like-named read-outs stand apart in the source and are kept apart here.

Key:
Format in all cases: biochemical
Falcipain-2 = Falcipain-2 (Plasmodium falciparum, UniProt Q8I6U4); experiment: Falcipain-2 enzymatic assay (assay 1)
Experimental: (§1) Assay 1) Determination of Falcipain-2, Falcipain-3, Vivapain-2, Cathepsin K Cathepsin S, Cathepsin L, and Cathepsin B Proteolytic Catalytic Activity
(§2) Assays for Falcipain-2, Falcipain-3, and Vivapain-2 are carried out with parasitic recombinant enzymes. Cathepsins K, S, L, and B are carried out with human recombinant enzymes. Standard assay conditions for the determination of kinetic constants used a fluorogenic peptide substrate, typically H-D-VLR-AFC (Falcipain-2, Falcipain-3, Vivapain-2), Z-FR-AFC (Cathepsin K, L, B), or KQKLR-AMC (Cathepsin S) and are determined in 100 mM sodium acetate, pH 5.5, containing 10 mM DTT and 0.5 mM CHAPS (Falcipain-2, Falcipain-3, Vivapain-2), and 100 mM sodium acetate, pH 5.5, containing 5 mM L-cysteine, 1 mM CHAPS and 5 mM EDTA (Cathepsin K, L, B), or 50 mM MES, pH 6.5, containing 0.5 mM CHAPS, 10 mM L-CYS, 5 mM EDTA (Cathepsin S). Stock substrate solutions are prepared at 20 mM in DMSO. The activity assays contained 30 uM substrate (Falcipain-2, Falcipain-3, Vivapain-2), 20 uM substrate (Cathepsin K), 25 uM substrate (Cathepsin B), 5 uM substrate (Cathepsin L), and 30 uM substrate (Cathepsin S). All assays contained 1% DMSO. […] All assays are conducted at ambient temperature as end point assays being quenched after 60 minutes with the exception of Cathepsin S at 90 minutes, with 16.6 uM E-64 in 1% DMSO. Product formation (AFC or AMC) is determined from fluorescence (excitation at 405 nm; emission at 530 nm, AFC, or excitation at 360 nm; emission at 460 nm, AMC) monitored with a LJL Aquest (Molecular Devices) fluorescent plate reader. In the case of kinetic reads (used in mechanism of action studies), the reaction is not quenched but is read in the plate reader every 3 minutes for approximately 90 minutes. In addition, the mechanism of action studies for Falcipain-2 utilize Z-LR-AMC as the substrate. Product formation is determined from the fluorescence of AMC, measured with a LJL Acquest (Molecular Devices) fluorescent plate reader (excitation at 360 nm; emission at 460 nm).
(§3) Potential inhibitors are evaluated using the quenched read (endpoint) method. Assays are carried out in the presence of variable concentrations of test compound. Reactions are initiated by addition of enzyme and substrate to wells containing inhibitor stamped in 100% DMSO. For endpoint assays, the reaction is quenched with the addition of E64. Dose response data is fit to an IC50 curve with preset fitting tools according to equation 1:
(§4) y=a+(b−a)/(1+(10^x/10^c)^d) (1)
(§5) where y is the response at a particular inhibitor concentration x, a is the minimum response value, b is the maximum response value, c is the IC50, and d is the slope of the IC50 curve. Assuming the compound is a competitive inhibitor, the apparent KI can be calculated from IC50, as shown in equation 2: […]

Falcipain-3 = Falcipain-3 (Plasmodium falciparum, UniProt Q8IIL0); experiment: Falcipain-3 enzymatic assay (assay 1)
Experimental: as §1, §2, §3, §4, §5

Cathepsin K = target: T1, Cathepsin K (Homo sapiens, UniProt P43235); experiment: Cathepsin K enzymatic assay (assay 1); details: human recombinant enzyme, Z-FR-AFC substrate, pH 5.5
T1 sequence (P43235 115-329): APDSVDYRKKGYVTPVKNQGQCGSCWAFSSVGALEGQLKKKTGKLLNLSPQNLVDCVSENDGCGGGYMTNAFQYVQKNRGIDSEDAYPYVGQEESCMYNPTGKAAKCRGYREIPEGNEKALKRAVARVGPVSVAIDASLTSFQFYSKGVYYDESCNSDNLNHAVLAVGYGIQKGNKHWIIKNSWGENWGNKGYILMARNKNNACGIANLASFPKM
Experimental: as §1, §2, §3, §4, §5

Chain of Falcipain-3 (Q8IIL0 243-492): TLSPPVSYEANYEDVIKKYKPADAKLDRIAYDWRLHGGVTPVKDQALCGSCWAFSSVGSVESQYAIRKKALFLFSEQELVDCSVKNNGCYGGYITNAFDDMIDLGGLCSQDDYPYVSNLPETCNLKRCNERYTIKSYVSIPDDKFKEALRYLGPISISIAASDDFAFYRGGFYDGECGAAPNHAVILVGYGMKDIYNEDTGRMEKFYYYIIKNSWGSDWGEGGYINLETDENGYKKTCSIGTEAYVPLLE
Chain of Falcipain-2 (Q8I6U4 244-484): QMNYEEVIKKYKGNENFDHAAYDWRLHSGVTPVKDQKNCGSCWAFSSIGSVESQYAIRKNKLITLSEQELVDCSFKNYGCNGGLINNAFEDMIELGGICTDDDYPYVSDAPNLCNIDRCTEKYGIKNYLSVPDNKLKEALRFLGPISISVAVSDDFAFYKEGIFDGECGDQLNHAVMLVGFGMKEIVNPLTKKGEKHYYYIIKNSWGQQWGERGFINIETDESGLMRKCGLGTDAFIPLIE

SMILES | IC50 (Falcipain-2) [nM] | IC50 (Falcipain-3) [nM] | IC50 (Cathepsin K) [nM] | IC50 (Falcipain-2; parasitic recombinant enzyme, H-D-VLR-AFC substrate, pH 5.5, endpoint read, read-out: Falcipain-2 IC50) [nM]
CC1CCC(N(NC(=O)c2ccc(CN3CCN(C)CC3)cc2)c2nc(C#N)ncc2Br)C1 (mixture of isomers) [Example 26, N′-(5-bromo-2-cyano-4-pyrimidinyl)-N′-(3-methylcyclopentyl)-4-[(4-methyl-1-piperazinyl)methyl]benzohydrazide trifluoroacetate] | < 1 | 15 to 150 | – | –
C[C@@H]1CCC[C@H]1N(NC(=O)c1ccc(F)cc1)c1nc(C#N)ncc1Br (racemic) [Example 43, N′-(5-bromo-2-cyano-4-pyrimidinyl)-4-fluoro-N′-[(1R,2R+1S,2S))-2-methylcyclopentyl]benzohydrazide trifluoroacetate] | < 1 | 2.5 to 15 | < 17 | –
CN1CCN(Cc2ccc(C(=O)NN(CC(C)(C)C)c3nc(C#N)ncc3Br)cc2)CC1 [Comparative Example 39, N′-(5-bromo-2-cyano-4-pyrimidinyl)-N′-(2,2-dimethylpropyl)-4-[(4-methyl-1-piperazinyl)methyl]benzohydrazide trifluoroacetate, reference compound] | 15 to 150 | 150 to 250 | – | –
C[C@H]1CCC[C@H]1N(NC(=O)c1ccc(CN2CCN(C)CC2)cc1)c1nc(C#N)ncc1Br [Example 2, N′-(5-bromo-2-cyano-4-pyrimidinyl)-N′-[(1 R,2S+1S,2R)-2-methylcyclopentyl]-4-[(4-methyl-1-piperazinyl)methyl]benzohydrazide trifluoroacetate] | 1 to 2.5 | 15 to 150 | < 17 | –
C[C@@H]1CCC[C@H]1N(NC(=O)c1ccc(CN2CCN(C)CC2)cc1)c1nc(C#N)ncc1Br [Example 3, N′-(5-bromo-2-cyano-4-pyrimidinyl)-N′-[(1R,2R+1S,2S)-2-methylcyclopentyl]-4-[(4-methyl-1-piperazinyl)methyl]benzohydrazide trifluoroacetate] | < 1 | 2.5 to 15 | < 1.5 | –
N#Cc1ncc(Br)c(N(NC(=O)c2ccc(CN3CCC(N4CCOCC4)CC3)cc2)C2CCCC2)n1 [Example 6, N′-(5-bromo-2-cyano-4-pyrimidinyl)-N′-cyclopentyl-4-{([4-(4-morpholinyl)-1-piperidinyl]methyl}benzohydrazide trifluoroacetate] | < 1 | 2.5 to 15 | < 1.5 | –
CN1CCC(CN2CCN(Cc3ccc(C(=O)NN(c4nc(C#N)ncc4Br)C4CCCC4)cc3)CC2)CC1 [Example 7, N′-(5-bromo-2-cyano-4-pyrimidinyl)-N′-cyclopentyl-4-({4-[(1-methyl-4-piperidinyl)methyl]-1-piperazinyl}methyl)benzohydrazide trifluoroacetate] | < 1 | 2.5 to 15 | < 1.5 | –
CN1CCCC(CN2CCN(Cc3ccc(C(=O)NN(c4nc(C#N)ncc4Br)C4CCCC4)cc3)CC2)C1 (centres unmarked) [Example 8, N′-(5-bromo-2-cyano-4-pyrimidinyl)-N′-cyclopentyl-4-({4-[(1-methyl-3-piperidinyl)methyl]-1-piperazinyl}methyl)benzohydrazide trifluoroacetate] | < 1 | 2.5 to 15 | < 1.5 | –
CN1CCN(C(=O)C2CCN(Cc3ccc(C(=O)NN(c4nc(C#N)ncc4Br)C4CCCC4)cc3)CC2)CC1 [Example 9, N′-(5-bromo-2-cyano-4-pyrimidinyl)-N′-cyclopentyl-4-({4-[(4-methyl-1-piperazinyl)carbonyl]-1-piperidinyl}methyl)benzohydrazide trifluoroacetate] | < 1 | 2.5 to 15 | < 1.5 | –
N#Cc1ncc(Br)c(N(NC(=O)c2cccc(CN3CCC(N4CCOCC4)CC3)c2)C2CCCC2)n1 [Example 13, N′-(5-bromo-2-cyano-4-pyrimidinyl)-N′-cyclopentyl-3-{[4-(4-morpholinyl)-1-piperidinyl]methyl}benzohydrazide trifluoroacetate] | < 1 | 2.5 to 15 | – | –
CN1CCN(Cc2ccc(C(=O)NN(c3nc(C#N)ncc3Br)C3CCOCC3)cc2)CC1 [Example 42, N′-(5-bromo-2-cyano-4-pyrimidinyl)-4-[(4-methyl-1-piperazinyl)methyl]-N′-(tetrahydro-2H-pyran-4-yl)benzohydrazide trifluoroacetate] | – | 15 to 150 | – | < 1
CN1CCN(C2CCN(Cc3ccc(C(=O)NN(c4nc(C#N)ncc4Br)C4CCN(C(=O)OCc5ccccc5)CC4)cc3)CC2)CC1 [Example 48, Phenylmethyl 4-{1-(5-bromo-2-cyano-4-pyrimidinyl)-2-[(4-{[4-(4-methyl-1-piperazinyl)-1-piperidinyl]methyl}phenyl)carbonyl]hydrazino}-1-piperidinecarboxylate triflouroacetate] | 1 to 2.5 | 2.5 to 15 | – | –
CN(CCO)Cc1ccc(C(=O)NN(c2nc(C#N)ncc2Cl)C2CCCC2)cc1 [Example 58, N′-(5-chloro-2-cyano-4-pyrimidinyl)-N′-cyclopentyl-4-{[(2-hydroxyethyl)(methyl)amino]methyl}benzohydrazide trifluoroacetate] | < 1 | 1 to 2.5 | – | –
CN1CCN(Cc2ccc(C(=O)NN(c3nc(C#N)ncc3Cl)C3CCOCC3)cc2)CC1 [Example 67, N′-(5-chloro-2-cyano-4-pyrimidinyl)-4-[(4-methyl-1-piperazinyl)methyl]-N′-(tetrahydro-2H-pyran-4-yl)benzohydrazide trifluoroacetate] | < 1 | 2.5 to 15 | – | –
CCN(Cc1ccc(C(=O)NN(c2nc(C#N)ncc2Cl)C2CCCC2)cc1)C(C)C [Example 68, N′-(5-chloro-2-cyano-4-pyrimidinyl)-N′-cyclopentyl-4-{[ethyl(1-methylethyl)amino]methyl}benzohydrazide trifluoroacetate] | < 1 | 2.5 to 15 | – | –
CN(Cc1ccc(C(=O)NN(c2nc(C#N)ncc2Cl)C2CCCC2)cc1)C(C)(C)C [Example 73, N′-(5-chloro-2-cyano-4-pyrimidinyl)-N′-cyclopentyl-4-{[(1,1-dimethylethyl)(methyl)amino]methyl}benzohydrazide trifluoroacetate] | < 1 | 2.5 to 15 | – | –
CCN(C)Cc1ccc(C(=O)NN(c2nc(C#N)ncc2Cl)C2CCCC2)cc1 [Example 74, N′-(5-chloro-2-cyano-4-pyrimidinyl)-N′-cyclopentyl-4-{[ethyl(methyl)amino]methyl}benzohydrazide trifluoroacetate] | < 1 | 15 to 150 | – | –
CC(C)N(Cc1ccc(C(=O)NN(c2nc(C#N)ncc2Cl)C2CCCC2)cc1)C1CCCCC1 [Example 75, N′-(5-chloro-2-cyano-4-pyrimidinyl)-4-{[cyclohexyl(1-methylethyl)amino]methyl}-N′-cyclopentylbenzohydrazide trifluoroacetate] | < 1 | 2.5 to 15 | – | –
CN(Cc1ccc(C(=O)NN(c2nc(C#N)ncc2Cl)C2CCCC2)cc1)CC(O)CO (centres unmarked) [Example 76, N′-(5-chloro-2-cyano-4-pyrimidinyl)-N′-cyclopentyl-4-{[(2,3-dihydroxypropyl)(methyl)amino]methyl}benzohydrazide trifluoroacetate] | < 1 | 2.5 to 15 | – | –
CN1CCN(c2cccc(C(=O)NN(c3nc(C#N)ncc3Cl)C3CCCC3)n2)CC1 [Example 78, N′-(5-chloro-2-cyano-4-pyrimidinyl)-N′-cyclopentyl-6-(4-methyl-1-piperazinyl)-2-pyridinecarbohydrazide trifluoroacetate] | < 1 | 15 to 150 | – | –
